Data from patent US7220580B2, “Sphingosine 1-phosphate receptor gene, sppr” (University of South Florida, priority 2000, dated 2007).

Tests used:
S1P5 = molecular target: T1, S1P5 (Homo sapiens, UniProt Q9H228); assay: Erk2 kinase assay in HEK293 cells transiently transfected with S1P5; format: cell-based; settings: HEK293 cells transiently transfected with S1P5 and HA-Erk2, 1 μM ligand for 5 min, MBP as substrate
T1 construct: The largest PCR product contains a complete open reading frame; expressed in transfected cells; host or cells: HEK293
T1 sequence (Q9H228 whole entry): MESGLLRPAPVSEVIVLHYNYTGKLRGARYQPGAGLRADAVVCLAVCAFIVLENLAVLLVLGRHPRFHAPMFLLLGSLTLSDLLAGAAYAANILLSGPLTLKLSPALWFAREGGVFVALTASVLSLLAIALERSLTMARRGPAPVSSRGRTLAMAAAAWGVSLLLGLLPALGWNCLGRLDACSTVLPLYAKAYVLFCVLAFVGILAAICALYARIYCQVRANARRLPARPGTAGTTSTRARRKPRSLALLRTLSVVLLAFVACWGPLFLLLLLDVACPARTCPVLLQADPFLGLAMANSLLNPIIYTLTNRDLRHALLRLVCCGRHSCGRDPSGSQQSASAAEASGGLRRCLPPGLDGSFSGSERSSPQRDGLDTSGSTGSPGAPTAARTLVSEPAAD
Method: Vector plasmid is added to each transfection reaction to equalize the amount of total DNA (2.1 μg). […] HA-ERK2 is immunoprecipitated from one half of each whole cell lysate and used for measuring the kinase activity utilizing MBP as substrate, while HA-ERK2 immunoprecipitated from the other half is used for determining the amount of ERK2 protein in the immune complex. FIG. 10 illustrates a representative autoradiogram of ^32P incorporation into MBP catalyzed by HA-ERK 2 immunoprecipitated from transiently transfected cells treated as indicated. […] Cell Culture and Transfection. HEK293 cells are grown in Dulbecco's modified eagle's medium supplemented with 10% fetal bovine serum. The cells are transiently transfected with a plasmid encoding HA-tagged Erk2 (HA-Erk2) and either pcDNA 3 S1P5 or pcDNA 3.1. Transfection is achieved by incubating the cells in 60 mm plates with plasmid/Lipofectamine complexes (2.1 μg total DNA/12 μl Lipofectamine) in serum-free medium for 5 hours. The DNA complexes are removed from the medium and the cells are starved overnight in serum-free medium and then used for experimentation. Erk2 Kinase Assay. […] The cells are lysed in buffer containing 50 mM Tris-HC1 pH 7.5, 150 mM NaCl, 1 mM EDTA, 1 mM EGTA, 1 mM DTT, 1% Triton X-100, 25 mM NaF, 5 mM sodium pyrophosphate, 20 mM ρ-nitrophenyl phosphate, 2 μg/mL leupeptin, and 100 μg/mL phenylmethylsulfonyl fluoride. HA-Erk2 is immunoprecipitated with the monoclonal antibody HA.11 (Convance, Richmond, Calif.). […] The reaction is terminated with SDS-containing gel-loading buffer and the reaction mixtures are analyzed on 11% SDS-polyacrylamide gels. The gels are processed by autoradiography. The bands on the gels are quantitated with a PhosphorImager. Erk2 protein in the immunoprecipitate is determined by immunoblotting with a polyclonal antibody to Erk2.

EDG-8 [1] = molecular target: T2, EDG-8 (Rattus norvegicus, UniProt Q9JKM5); settings: CHO cells expressing EDG-8; cited from earlier work
T2 construct: host or cells: CHO cells
T2 sequence (Q9JKM5 whole entry): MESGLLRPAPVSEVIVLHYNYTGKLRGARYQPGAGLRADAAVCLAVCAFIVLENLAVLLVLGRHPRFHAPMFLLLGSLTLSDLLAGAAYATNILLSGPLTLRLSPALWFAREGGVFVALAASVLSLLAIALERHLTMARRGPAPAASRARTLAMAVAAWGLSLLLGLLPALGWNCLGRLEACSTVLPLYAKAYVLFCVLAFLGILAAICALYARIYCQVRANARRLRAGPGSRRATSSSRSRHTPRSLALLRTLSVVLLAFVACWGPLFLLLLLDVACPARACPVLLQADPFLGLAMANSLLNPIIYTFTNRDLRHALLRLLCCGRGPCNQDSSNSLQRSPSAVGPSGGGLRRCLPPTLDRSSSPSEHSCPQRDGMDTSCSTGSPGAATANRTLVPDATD

EDG-8 [2] = molecular target: T2, EDG-8; settings: CHO cells expressing EDG-8; cited from earlier work; remark: listed apart in the source

| Compound | activation of Erk2 activity (S1P5) | activation of Erk2 activity (S1P5; listed as sphingosine-1-phosphate) | serum-induced activation of Erk1/2 (EDG-8 [1]) | cell proliferation (EDG-8 [2]) | activation of Erk2 activity (S1P5; listed as lysophosphatidic acid) |
| --- | --- | --- | --- | --- | --- |
| CCCCCCCCCCCCC/C=C/[C@@H](O)[C@@H](N)COP(=O)(O)O [S1P, sphingosine-1-phosphate] | activates Erk2 | activation of Erk2 activity | inhibited | inhibits the cell proliferation |  |
| lysophosphatidic acid [LPA] | not |  |  |  | does not |
